± gives the expanded uncertainty stated by the source.
Columns and labels:
[1] = 100 kPa, Liquid; for viscosity: Falling or rolling sphere viscometry; for mass density: Vibrating tube method
[2] = xn = mol fraction of the nth substance listed; conditions: 100 kPa, Liquid, x2 = 0; for viscosity: Falling or rolling sphere viscometry; for mass density: Vibrating tube method

SMILES	viscosity ([1]; 293.15 K)	mass density ([1]; 293.15 K)	viscosity ([1]; 298.15 K)	mass density ([1]; 298.15 K)	viscosity ([1]; 303.15 K)	mass density ([1]; 303.15 K)	viscosity ([1]; 308.15 K)	mass density ([1]; 308.15 K)	viscosity ([1]; 313.15 K)	mass density ([1]; 313.15 K)	viscosity ([2]; 293.15 K)	mass density ([2]; 293.15 K)	viscosity ([2]; 298.15 K)	mass density ([2]; 298.15 K)	viscosity ([2]; 303.15 K)	mass density ([2]; 303.15 K)	viscosity ([2]; 308.15 K)	mass density ([2]; 308.15 K)	viscosity ([2]; 313.15 K)	mass density ([2]; 313.15 K)
CN(C)C(=[NH2+])N(C)C.c1c[n-]cn1 [1,1,3,3-tetramethylguanidinium imidazol-1-ide]	8.952 ± 0.2 mPa·s	997.25 ± 0.25 kg/m3	7.287 ± 0.16 mPa·s	992.8 ± 0.25 kg/m3	6.044 ± 0.13 mPa·s	988.35 ± 0.25 kg/m3	5.097 ± 0.11 mPa·s	983.9 ± 0.25 kg/m3	4.358 ± 0.096 mPa·s	979.46 ± 0.25 kg/m3										
CCCCO [butan-1-ol]	2.918 ± 0.062 mPa·s	809.72 ± 0.16 kg/m3	2.566 ± 0.055 mPa·s	805.92 ± 0.16 kg/m3	2.272 ± 0.049 mPa·s	802.08 ± 0.16 kg/m3	2.024 ± 0.043 mPa·s	798.21 ± 0.16 kg/m3	1.81 ± 0.039 mPa·s	794.3 ± 0.17 kg/m3										
CCCCO [butan-1-ol] + CN(C)C(=[NH2+])N(C)C.c1c[n-]cn1											2.918 ± 0.062 mPa·s	809.72 ± 0.16 kg/m3	2.566 ± 0.055 mPa·s	805.92 ± 0.16 kg/m3	2.272 ± 0.049 mPa·s	802.08 ± 0.16 kg/m3	2.024 ± 0.043 mPa·s	798.21 ± 0.16 kg/m3	1.81 ± 0.039 mPa·s	794.3 ± 0.17 kg/m3
CCO [ethanol]	1.186 ± 0.025 mPa·s	789.51 ± 0.17 kg/m3	1.083 ± 0.023 mPa·s	785.4 ± 0.17 kg/m3	0.987 ± 0.021 mPa·s	780.83 ± 0.17 kg/m3	0.903 ± 0.019 mPa·s	776.48 ± 0.17 kg/m3	0.829 ± 0.018 mPa·s	772.15 ± 0.17 kg/m3										
CCO [ethanol] + CN(C)C(=[NH2+])N(C)C.c1c[n-]cn1											1.186 ± 0.025 mPa·s	789.51 ± 0.17 kg/m3	1.083 ± 0.023 mPa·s	785.4 ± 0.17 kg/m3	0.987 ± 0.021 mPa·s	780.83 ± 0.17 kg/m3	0.903 ± 0.019 mPa·s	776.48 ± 0.17 kg/m3	0.829 ± 0.018 mPa·s	772.15 ± 0.17 kg/m3
CO [methanol]	0.597 ± 0.013 mPa·s	791.35 ± 0.17 kg/m3	0.559 ± 0.012 mPa·s	786.67 ± 0.18 kg/m3	0.518 ± 0.011 mPa·s	781.94 ± 0.18 kg/m3	0.493 ± 0.011 mPa·s	777.2 ± 0.18 kg/m3	0.466 ± 0.01 mPa·s	772.42 ± 0.18 kg/m3										
CO [methanol] + CN(C)C(=[NH2+])N(C)C.c1c[n-]cn1											0.597 ± 0.013 mPa·s	791.35 ± 0.17 kg/m3	0.559 ± 0.012 mPa·s	786.67 ± 0.18 kg/m3	0.518 ± 0.011 mPa·s	781.94 ± 0.18 kg/m3	0.493 ± 0.011 mPa·s	777.2 ± 0.18 kg/m3	0.466 ± 0.01 mPa·s	772.42 ± 0.18 kg/m3
CCCO [propan-1-ol]	2.217 ± 0.047 mPa·s	803.75 ± 0.16 kg/m3	1.955 ± 0.042 mPa·s	799.71 ± 0.17 kg/m3	1.736 ± 0.037 mPa·s	795.65 ± 0.17 kg/m3	1.55 ± 0.033 mPa·s	791.56 ± 0.17 kg/m3	1.389 ± 0.03 mPa·s	787.42 ± 0.17 kg/m3										
CCCO [propan-1-ol] + CN(C)C(=[NH2+])N(C)C.c1c[n-]cn1											2.217 ± 0.047 mPa·s	803.75 ± 0.16 kg/m3	1.955 ± 0.042 mPa·s	799.71 ± 0.17 kg/m3	1.736 ± 0.037 mPa·s	795.65 ± 0.17 kg/m3	1.55 ± 0.033 mPa·s	791.56 ± 0.17 kg/m3	1.389 ± 0.03 mPa·s	787.42 ± 0.17 kg/m3

Source: the NIST ThermoML archive (doi:10.1016/j.jct.2015.04.027)
